Measured values reported in paper PMC5574958, “Radiosynthesis and Preclinical Evaluation of [^18F]F-DPA, A Novel Pyrazolo[1,5a]pyrimidine Acetamide TSPO Radioligand, in Healthy Sprague Dawley Rats” (Molecular Imaging and Biology, 2017).

Experiments:
TSPO = details: read-out: K i (TSPO affinity); cited from earlier work
CBR = details: read-out: K i CBR (selectivity); cited from earlier work
[1] = Plasma protein binding (ultrafiltration of plasma after tracer injection); type: in vivo, Sprague Dawley rats; details: 15 min after injection, 30 kDa ultrafiltration, n = 3
Protocol: After 15 min, the animals were sacrificed and the blood was collected into Li-heparin tubes and centrifuged (3000×g, 10 min). A 10-μl aliquot of the plasma was spotted onto a TLC plate; following this, the remaining plasma was filtered by ultrafiltration using Microsep 30K Omega (Pall Life Sciences, Mexico) with a cut-off of 30 kDa. A 10-μl aliquot of the resulting supernatant was also spotted onto the TLC plate. The plates were exposed onto an imaging plate (Fuji BAS Imaging Plate TR2025, Fuji Photo Film Co., Ltd., Tokyo, Japan) for approximately two half-lives of fluorine-18 (3.5 to 4 h). After the exposure, the imaging plates were scanned using a BAS-5000 reader (Fuji, Japan) with a resolution of 50 μm and the saved images were analyzed using TINA software (version 2.10 g, Raytest, Isotopenmessgeräte, GmbH, Straubenhardt, Germany).

[2] = RadioTLC analyses of radiometabolites in plasma and brain homogenates; type: in vivo, Sprague Dawley rats; details: 90 min after injection, n = 3
Protocol: The blood samples were taken into Li-heparin tubes and centrifuged (3000×g, 10 min). The plasma was transferred to an Eppendorf tube and the plasma proteins were precipitated by addition of 1.5 parts of MeOH by volume. Following a further centrifugation (12,000×g, 4 min), 20 μl of the supernatant was spotted onto an aluminum-backed silica gel 60/Kieselguhr F254 TLC plate (EMD Millipore 1.05567.0001, Merck Millipore, Darmstadt, Germany).
Brain samples from the cortex were homogenized with approximately 200 μl of 1:1 v/v of MeOH and water; the mixture was transferred to an Eppendorf tube and centrifuged (12,000×g, 4 min). An aliquot (20 μl) of the supernatant was spotted onto the TLC plate.
The TLC plates were developed with a mixture of dichloromethane and methanol (9:1, v/v) for a distance of 6 cm. Following this, the plates were exposed onto an imaging plate (Fuji BAS Imaging Plate TR2025, Fuji Photo Film Co., Ltd., Tokyo, Japan) for approximately two half-lives of fluorine-18 (3.5 to 4 h). After the exposure, the imaging plates were scanned using a BAS-5000 reader (Fuji, Japan) with a resolution of 50 μm and the saved images were analyzed using TINA software (version 2.10 g, Raytest, Isotopenmessgeräte, GmbH, Straubenhardt, Germany).

Ex vivo biodistribution = type: in vivo, Sprague Dawley rats; details: for Uptake of fluorine-18-radioactivity, Harderian gland / Uptake of fluorine-18-radioactivity, Brain / Uptake of fluorine-18-radioactivity, Brown fat / Uptake of fluorine-18-radioactivity, Eye x2 / Uptake of fluorine-18-radioactivity, Injection site (tail) / Uptake of fluorine-18-radioactivity, Large int. Wall + contents / Uptake of fluorine-18-radioactivity, Liver / Uptake of fluorine-18-radioactivity, Lung / Uptake of fluorine-18-radioactivity, Muscle / Uptake of fluorine-18-radioactivity, Salivary x2 / Uptake of fluorine-18-radioactivity, Small int. wall + contents / Uptake of fluorine-18-radioactivity, Stomach wall + contents / Uptake of fluorine-18-radioactivity, Testis: mean, n = 3
Protocol: After sacrifice (5, 15, 30, 60, and 90 min after injection, n = 3, for every time point and radiotracer), the blood was collected into Li-heparin tubes and transcardial perfusion with saline was conducted rapidly in order to eliminate the blood from the whole body. Following this, the organs of the animals were collected, individually weighed, and the radioactivity was measured using a gamma counter (Wizard^2 3 × 3″, PerkinElmer, Turku, Finland). The decay-corrected radioactivity is reported as percentage of injected dose per gram (%ID/g).

Structure (SMILES): CCN(CC)C(=O)Cc1c(-c2ccc(F)cc2)nn2c(C)cc(C)nc12 [F-DPA, N,N-Diethyl-2-(2-(4-fluorophenyl)-5,7-dimethylpyrazolo[1,5-a]pyrimidin-3-yl)acetamide]
- Ki (TSPO): 0.0017 µM
- Ki (CBR): > 1 µM

Structure (SMILES): CCN(CC)C(=O)Cc1c(-c2ccc(OCC[18F])cc2)nn2c(C)cc(C)nc12 [[^18F]DPA-714, reference compound]
- Fraction of radioactivity unbound to the plasma proteins [1]: 32.8 ± 8.8%
- Unchanged radiotracer, share of radioactivity in the brain ([2]; brain homogenate): 53.6 ± 1.6%
- Unchanged radiotracer, share of radioactivity in the plasma ([2]; plasma): 11.1 ± 2.6%
- Ki (CBR): > 1 µM
- Uptake of fluorine-18-radioactivity, Harderian gland (Ex vivo biodistribution; 5 min after injection): 0.40 %ID/g tissue
- Uptake of fluorine-18-radioactivity, Harderian gland (Ex vivo biodistribution; 15 min after injection): 0.52 %ID/g tissue
- Uptake of fluorine-18-radioactivity, Harderian gland (Ex vivo biodistribution; 30 min after injection): 0.45 %ID/g tissue
- Uptake of fluorine-18-radioactivity, Harderian gland (Ex vivo biodistribution; 60 min after injection): 0.54 %ID/g tissue
- Uptake of fluorine-18-radioactivity, Harderian gland (Ex vivo biodistribution; 90 min after injection): 0.43 %ID/g tissue
- Accumulation of radioactivity in the bone (defluorination in vivo) (Ex vivo biodistribution; after the initial uptake at 5 min, up to 90 min): no significant accumulation of radioactivity in the bone
- Uptake of fluorine-18-radioactivity, Brain (Ex vivo biodistribution; 5 min after injection): 0.29 %ID/g tissue
- Uptake of fluorine-18-radioactivity, Brain (Ex vivo biodistribution; 15 min after injection): 0.17 %ID/g tissue
- Uptake of fluorine-18-radioactivity, Brain (Ex vivo biodistribution; 30 min after injection): 0.12 %ID/g tissue
- Uptake of fluorine-18-radioactivity, Brain (Ex vivo biodistribution; 60 min after injection): 0.09 %ID/g tissue
- Uptake of fluorine-18-radioactivity, Brain (Ex vivo biodistribution; 90 min after injection): 0.08 %ID/g tissue
- Uptake of fluorine-18-radioactivity, Brown fat (Ex vivo biodistribution; 5 min after injection): 0.22 %ID/g tissue
- Uptake of fluorine-18-radioactivity, Brown fat (Ex vivo biodistribution; 15 min after injection): 0.31 %ID/g tissue
- Uptake of fluorine-18-radioactivity, Brown fat (Ex vivo biodistribution; 30 min after injection): 0.51 %ID/g tissue
- Uptake of fluorine-18-radioactivity, Brown fat (Ex vivo biodistribution; 60 min after injection): 1.07 %ID/g tissue
- Uptake of fluorine-18-radioactivity, Brown fat (Ex vivo biodistribution; 90 min after injection): 1.25 %ID/g tissue
- Uptake of fluorine-18-radioactivity, Eye x2 (Ex vivo biodistribution; eye x2, 5 min after injection): 0.28 %ID/g tissue
- Uptake of fluorine-18-radioactivity, Eye x2 (Ex vivo biodistribution; eye x2, 15 min after injection): 0.29 %ID/g tissue
- Uptake of fluorine-18-radioactivity, Eye x2 (Ex vivo biodistribution; eye x2, 30 min after injection): 0.26 %ID/g tissue
- Uptake of fluorine-18-radioactivity, Eye x2 (Ex vivo biodistribution; eye x2, 60 min after injection): 0.22 %ID/g tissue
- Uptake of fluorine-18-radioactivity, Eye x2 (Ex vivo biodistribution; eye x2, 90 min after injection): 0.20 %ID/g tissue
- Uptake of fluorine-18-radioactivity, Injection site (tail) (Ex vivo biodistribution; 5 min after injection): 0.49 %ID/g tissue
- Uptake of fluorine-18-radioactivity, Injection site (tail) (Ex vivo biodistribution; 15 min after injection): 0.29 %ID/g tissue
- Uptake of fluorine-18-radioactivity, Injection site (tail) (Ex vivo biodistribution; 30 min after injection): 0.34 %ID/g tissue
- Uptake of fluorine-18-radioactivity, Injection site (tail) (Ex vivo biodistribution; 60 min after injection): 0.38 %ID/g tissue
- Uptake of fluorine-18-radioactivity, Injection site (tail) (Ex vivo biodistribution; 90 min after injection): 0.24 %ID/g tissue
- Uptake of fluorine-18-radioactivity, Large int. Wall + contents (Ex vivo biodistribution; 5 min after injection): 0.20 %ID/g tissue
- Uptake of fluorine-18-radioactivity, Large int. Wall + contents (Ex vivo biodistribution; 15 min after injection): 0.24 %ID/g tissue
- Uptake of fluorine-18-radioactivity, Large int. Wall + contents (Ex vivo biodistribution; 30 min after injection): 0.26 %ID/g tissue
- Uptake of fluorine-18-radioactivity, Large int. Wall + contents (Ex vivo biodistribution; 60 min after injection): 0.41 %ID/g tissue
- Uptake of fluorine-18-radioactivity, Large int. Wall + contents (Ex vivo biodistribution; 90 min after injection): 0.29 %ID/g tissue
- Uptake of fluorine-18-radioactivity, Liver (Ex vivo biodistribution; 5 min after injection): 0.78 %ID/g tissue
- Uptake of fluorine-18-radioactivity, Liver (Ex vivo biodistribution; 15 min after injection): 0.87 %ID/g tissue
- Uptake of fluorine-18-radioactivity, Liver (Ex vivo biodistribution; 30 min after injection): 0.60 %ID/g tissue
- Uptake of fluorine-18-radioactivity, Liver (Ex vivo biodistribution; 60 min after injection): 0.37 %ID/g tissue
- Uptake of fluorine-18-radioactivity, Liver (Ex vivo biodistribution; 90 min after injection): 0.26 %ID/g tissue
- Uptake of fluorine-18-radioactivity, Lung (Ex vivo biodistribution; 5 min after injection): 19.83 %ID/g tissue
- Uptake of fluorine-18-radioactivity, Lung (Ex vivo biodistribution; 15 min after injection): 10.24 %ID/g tissue
- Uptake of fluorine-18-radioactivity, Lung (Ex vivo biodistribution; 30 min after injection): 5.73 %ID/g tissue
- Uptake of fluorine-18-radioactivity, Lung (Ex vivo biodistribution; 60 min after injection): 3.01 %ID/g tissue
- Uptake of fluorine-18-radioactivity, Lung (Ex vivo biodistribution; 90 min after injection): 2.00 %ID/g tissue
- Uptake of fluorine-18-radioactivity, Muscle (Ex vivo biodistribution; 5 min after injection): 0.07 %ID/g tissue
- Uptake of fluorine-18-radioactivity, Muscle (Ex vivo biodistribution; 15 min after injection): 0.07 %ID/g tissue
- Uptake of fluorine-18-radioactivity, Muscle (Ex vivo biodistribution; 30 min after injection): 0.11 %ID/g tissue
- Uptake of fluorine-18-radioactivity, Muscle (Ex vivo biodistribution; 60 min after injection): 0.16 %ID/g tissue
- Uptake of fluorine-18-radioactivity, Muscle (Ex vivo biodistribution; 90 min after injection): 0.18 %ID/g tissue
- Uptake of fluorine-18-radioactivity, Salivary x2 (Ex vivo biodistribution; salivary x2, 5 min after injection): 0.59 %ID/g tissue
- Uptake of fluorine-18-radioactivity, Salivary x2 (Ex vivo biodistribution; salivary x2, 15 min after injection): 1.34 %ID/g tissue
- Uptake of fluorine-18-radioactivity, Salivary x2 (Ex vivo biodistribution; salivary x2, 30 min after injection): 0.88 %ID/g tissue
- Uptake of fluorine-18-radioactivity, Salivary x2 (Ex vivo biodistribution; salivary x2, 60 min after injection): 1.00 %ID/g tissue
- Uptake of fluorine-18-radioactivity, Salivary x2 (Ex vivo biodistribution; salivary x2, 90 min after injection): 0.89 %ID/g tissue
- Uptake of fluorine-18-radioactivity, Small int. wall + contents (Ex vivo biodistribution; 5 min after injection): 0.69 %ID/g tissue
- Uptake of fluorine-18-radioactivity, Small int. wall + contents (Ex vivo biodistribution; 15 min after injection): 1.07 %ID/g tissue
- Uptake of fluorine-18-radioactivity, Small int. wall + contents (Ex vivo biodistribution; 30 min after injection): 1.44 %ID/g tissue
- Uptake of fluorine-18-radioactivity, Small int. wall + contents (Ex vivo biodistribution; 60 min after injection): 1.80 %ID/g tissue
- Uptake of fluorine-18-radioactivity, Small int. wall + contents (Ex vivo biodistribution; 90 min after injection): 2.04 %ID/g tissue
- Uptake of fluorine-18-radioactivity, Stomach wall + contents (Ex vivo biodistribution; 5 min after injection): 0.27 %ID/g tissue
- Uptake of fluorine-18-radioactivity, Stomach wall + contents (Ex vivo biodistribution; 15 min after injection): 0.65 %ID/g tissue
- Uptake of fluorine-18-radioactivity, Stomach wall + contents (Ex vivo biodistribution; 30 min after injection): 0.43 %ID/g tissue
- Uptake of fluorine-18-radioactivity, Stomach wall + contents (Ex vivo biodistribution; 60 min after injection): 0.33 %ID/g tissue
- Uptake of fluorine-18-radioactivity, Stomach wall + contents (Ex vivo biodistribution; 90 min after injection): 0.44 %ID/g tissue
- Uptake of fluorine-18-radioactivity, Testis (Ex vivo biodistribution; 5 min after injection): 0.11 %ID/g tissue
- Uptake of fluorine-18-radioactivity, Testis (Ex vivo biodistribution; 15 min after injection): 0.10 %ID/g tissue
- Uptake of fluorine-18-radioactivity, Testis (Ex vivo biodistribution; 30 min after injection): 0.13 %ID/g tissue
- Uptake of fluorine-18-radioactivity, Testis (Ex vivo biodistribution; 60 min after injection): 0.14 %ID/g tissue
- Uptake of fluorine-18-radioactivity, Testis (Ex vivo biodistribution; 90 min after injection): 0.14 %ID/g tissue
